Measurements from ChEMBL document CHEMBL4270566, “New aziridine-based inhibitors of cathepsin L-like cysteine proteases with selectivity for the Leishmania cysteine protease LmCPB2.8” (Eur J Med Chem, 2018).
Activity calls are given as the source filed them. No cut-off for these calls is given here.

Tests used:
Cathepsin B [1] = target: T1, Cathepsin B (Homo sapiens, UniProt P07858); test: Inhibition of human cathepsin-B using Z-Phe-Arg-AMC as substrate by fluorometric assay
Procathepsin L [2] = target: T2, Procathepsin L (Homo sapiens, UniProt P07711); test: Inhibition of human cathepsin-L using Z-Phe-Arg-AMC as substrate by fluorometric assay
Target sequence in this assay (P07711 whole entry): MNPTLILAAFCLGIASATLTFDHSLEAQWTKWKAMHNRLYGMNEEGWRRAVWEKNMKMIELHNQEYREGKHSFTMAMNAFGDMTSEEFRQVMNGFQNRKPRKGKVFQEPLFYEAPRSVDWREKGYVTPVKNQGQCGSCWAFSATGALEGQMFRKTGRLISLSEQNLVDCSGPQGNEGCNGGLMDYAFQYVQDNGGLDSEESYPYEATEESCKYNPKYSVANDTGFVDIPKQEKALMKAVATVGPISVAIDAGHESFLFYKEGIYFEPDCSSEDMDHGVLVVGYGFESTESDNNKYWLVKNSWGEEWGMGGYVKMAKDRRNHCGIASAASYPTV

Leishmania major [3] = test: Antileishmanial activity against Leishmania major promastigotes at 20 uM; type: functional, organism-based
Falcipain 2 = target: T3, Falcipain 2 (Plasmodium falciparum, UniProt Q9N6S8); test: Inhibition of Plasmodium falciparum falcipain 2 using Z-Phe-Arg-AMC as substrate by fluorometric assay
T3 sequence (Q9N6S8 whole entry): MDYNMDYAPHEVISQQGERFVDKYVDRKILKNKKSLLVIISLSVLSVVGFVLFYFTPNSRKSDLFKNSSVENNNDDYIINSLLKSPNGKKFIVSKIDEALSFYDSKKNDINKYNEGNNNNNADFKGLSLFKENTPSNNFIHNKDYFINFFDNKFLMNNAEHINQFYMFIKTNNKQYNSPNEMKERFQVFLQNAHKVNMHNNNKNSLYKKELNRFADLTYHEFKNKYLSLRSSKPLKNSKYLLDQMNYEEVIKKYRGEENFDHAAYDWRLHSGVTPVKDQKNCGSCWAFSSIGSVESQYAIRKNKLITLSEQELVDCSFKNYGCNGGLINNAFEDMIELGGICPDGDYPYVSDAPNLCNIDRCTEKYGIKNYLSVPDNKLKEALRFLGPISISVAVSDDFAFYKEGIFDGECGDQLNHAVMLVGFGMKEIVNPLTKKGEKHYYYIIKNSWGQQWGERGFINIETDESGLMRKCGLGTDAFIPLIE

J774 = test: Cytotoxicity against mouse J774 cells; type: cell-based
Cathepsin B [4] = target: T1, Cathepsin B; test: Inhibition of human cathepsin-B at 20 uM using Z-Phe-Arg-AMC as substrate by fluorometric assay relative to control
Leishmania major [5] = test: Antileishmanial activity against luciferase-fused Leishmania major amastigotes infected in BMDM after 24 hrs by luminescence assay; type: functional, organism-based
[6] = Inhibition of Leishmania mexicana cathepsin L-like protease CPB2.8 using Z-Phe-Arg-AMC as substrate by fluorometric assay
[7] = target: T4, Falcipain 2 (Plasmodium falciparum) (UniProt Q9N6S8); test: Inhibition of Plasmodium falciparum falcipain 2 at 20 uM using Z-Phe-Arg-AMC as substrate by fluorometric assay relative to control
T4 sequence (whole entry): T3 sequence (Q9N6S8 whole entry)

Procathepsin L [8] = target: T2, Procathepsin L; test: Inhibition of human cathepsin-L at 20 uM using Z-Phe-Arg-AMC as substrate by fluorometric assay relative to control
Target sequence in this assay (P07711 114-333 limits assumed): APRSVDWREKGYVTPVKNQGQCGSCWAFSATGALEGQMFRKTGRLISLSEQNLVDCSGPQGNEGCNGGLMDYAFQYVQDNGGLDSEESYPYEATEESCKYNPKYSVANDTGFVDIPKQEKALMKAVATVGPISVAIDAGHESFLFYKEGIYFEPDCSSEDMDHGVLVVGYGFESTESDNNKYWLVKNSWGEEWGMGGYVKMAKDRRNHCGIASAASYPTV

[9] = target: Cruzipain (Trypanosoma cruzi) (UniProt P25779); test: Inhibition of Trypanosoma cruzi cruzain at 20 uM using Z-Phe-Arg-AMC as substrate by fluorometric assay relative to control
Cruzipain (Trypanosoma cruzi), sequence (P25779 123-467 limits assumed): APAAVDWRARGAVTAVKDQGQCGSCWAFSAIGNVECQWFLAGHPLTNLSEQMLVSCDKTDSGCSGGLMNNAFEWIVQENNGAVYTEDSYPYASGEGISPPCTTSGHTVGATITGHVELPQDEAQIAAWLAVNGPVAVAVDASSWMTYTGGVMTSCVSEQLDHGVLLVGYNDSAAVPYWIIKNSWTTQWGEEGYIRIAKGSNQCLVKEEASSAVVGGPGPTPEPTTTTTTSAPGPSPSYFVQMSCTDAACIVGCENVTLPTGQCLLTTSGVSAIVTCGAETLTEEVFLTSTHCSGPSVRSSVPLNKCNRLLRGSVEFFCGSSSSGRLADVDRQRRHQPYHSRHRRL

[10] = target: T5, Cathepsin B-like protease (Leishmania major, UniProt P90627); test: Inhibition of Leishmania major MHOM/IL/81/FE/BNI His6-tagged CPC expressed in Pichia pastoris using Cbz-Phe-Arg-AMC as substrate by fluorescence spectrometric method; settings: read-out: Ki(app)
T5 sequence (P90627 whole entry): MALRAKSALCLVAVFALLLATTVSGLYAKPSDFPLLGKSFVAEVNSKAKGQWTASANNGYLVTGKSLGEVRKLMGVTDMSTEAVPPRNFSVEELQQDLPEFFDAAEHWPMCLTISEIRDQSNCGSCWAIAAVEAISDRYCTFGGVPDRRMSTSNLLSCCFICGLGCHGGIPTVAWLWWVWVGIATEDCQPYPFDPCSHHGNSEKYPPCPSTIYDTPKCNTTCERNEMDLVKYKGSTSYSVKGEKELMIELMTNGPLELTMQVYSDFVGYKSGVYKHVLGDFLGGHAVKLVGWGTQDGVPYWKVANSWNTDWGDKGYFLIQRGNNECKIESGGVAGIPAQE

Leishmania major [11] = test: Antileishmanial activity against Leishmania major promastigotes; type: functional, organism-based
Rhodesain = Rhodesain (Trypanosoma brucei rhodesiense, UniProt Q95PM0); test: Inhibition of Trypanosoma brucei rhodesiense rhodesain using Z-Phe-Arg-AMC as substrate by fluorometric assay
Rhodesain, sequence (Q95PM0 whole entry): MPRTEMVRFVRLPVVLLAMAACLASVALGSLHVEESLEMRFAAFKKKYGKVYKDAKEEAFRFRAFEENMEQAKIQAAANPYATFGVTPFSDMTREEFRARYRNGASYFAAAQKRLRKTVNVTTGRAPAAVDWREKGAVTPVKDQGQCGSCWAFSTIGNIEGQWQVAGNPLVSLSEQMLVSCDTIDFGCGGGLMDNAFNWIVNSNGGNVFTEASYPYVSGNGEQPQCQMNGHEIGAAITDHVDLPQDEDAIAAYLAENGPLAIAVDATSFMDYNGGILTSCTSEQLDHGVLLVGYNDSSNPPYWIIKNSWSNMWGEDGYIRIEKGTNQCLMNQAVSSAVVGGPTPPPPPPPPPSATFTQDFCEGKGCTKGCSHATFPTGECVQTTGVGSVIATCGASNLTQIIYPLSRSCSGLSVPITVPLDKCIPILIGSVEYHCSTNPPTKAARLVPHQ

[12] = target: Rhodesain (Trypanosoma brucei rhodesiense) (UniProt Q95PM0); test: Inhibition of Trypanosoma brucei rhodesiense rhodesain assessed as second order inactivation rate constant using Z-Phe-Arg-AMC as substrate by fluorometric assay
Rhodesain (Trypanosoma brucei rhodesiense), sequence (Q95PM0 1-450): as the sequence (Q95PM0 whole entry) above

Cruzipain = Cruzipain (Trypanosoma cruzi, UniProt P25779); test: Inhibition of Trypanosoma cruzi cruzain using Z-Phe-Arg-AMC as substrate by fluorometric assay
Cruzipain, sequence (P25779 whole entry): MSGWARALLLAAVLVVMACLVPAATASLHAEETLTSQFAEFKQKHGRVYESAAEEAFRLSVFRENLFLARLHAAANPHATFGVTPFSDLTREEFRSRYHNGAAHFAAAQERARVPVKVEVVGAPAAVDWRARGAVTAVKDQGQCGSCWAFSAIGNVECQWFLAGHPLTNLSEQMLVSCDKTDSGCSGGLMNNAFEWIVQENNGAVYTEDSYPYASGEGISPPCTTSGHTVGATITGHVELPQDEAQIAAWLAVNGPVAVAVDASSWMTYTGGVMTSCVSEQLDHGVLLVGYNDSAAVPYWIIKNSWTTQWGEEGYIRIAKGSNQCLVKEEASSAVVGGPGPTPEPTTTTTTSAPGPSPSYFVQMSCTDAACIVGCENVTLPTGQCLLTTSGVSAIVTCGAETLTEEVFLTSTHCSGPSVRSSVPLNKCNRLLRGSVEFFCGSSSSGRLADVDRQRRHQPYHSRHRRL

Leishmania mexicana [13] = test: Inhibition of Leishmania mexicana cathepsin L-like protease CPB2.8 at 20 uM using Z-Phe-Arg-AMC as substrate by fluorometric assay relative to control
Procathepsin L [14] = target: T2, Procathepsin L; test: Inhibition of human cathepsin-L assessed as second order inactivation rate constant using Z-Phe-Arg-AMC as substrate by fluorometric assay
Target sequence in this assay (P07711 114-333 limits assumed): as the sequence (P07711 114-333 limits assumed) above

[15] = target: Cruzipain (Trypanosoma cruzi) (UniProt P25779); test: Inhibition of Trypanosoma cruzi cruzain assessed as second order inactivation rate constant using Z-Phe-Arg-AMC as substrate by fluorometric assay
Leishmania mexicana [16] = test: Inhibition of Leishmania mexicana cathepsin L-like protease CPB2.8 assessed as second order inactivation rate constant using Z-Phe-Arg-AMC as substrate by fluorometric assay
[17] = target: T4, Falcipain 2 (Plasmodium falciparum); test: Inhibition of Plasmodium falciparum falcipain 2 assessed as second order inactivation rate constant using Z-Phe-Arg-AMC as substrate by fluorometric assay
[18] = target: Rhodesain (Trypanosoma brucei rhodesiense) (UniProt Q95PM0); test: Inhibition of Trypanosoma brucei rhodesiense rhodesain at 20 uM using Z-Phe-Arg-AMC as substrate by fluorometric assay relative to control

Structure (SMILES)	Ki (Procathepsin L [2]) [nM]	Ki (Falcipain 2) [nM]	inhibition (Cathepsin B [4])	Ki [6] [nM]	inhibition [7]	inhibition (Procathepsin L [8])	inhibition [9]	Ki (Rhodesain) [nM]	also measured
CC(C)C[C@H](NC(=O)OC(C)(C)C)C(=O)N1CCC[C@H]1C(=O)N1[C@@H](C(=O)OCc2ccccc2)[C@@H]1C(=O)OCc1ccccc1	400	400							Ki (Cathepsin B [1]): 114000 nM; Activity (Leishmania major [3]): inactive
CC(C)C[C@H](NC(=O)OC(C)(C)C)C(=O)N1CCC[C@@H]1C(=O)N1[C@@H](C(=O)OCc2ccccc2)[C@@H]1C(=O)OCc1ccccc1			inactive	3800	inactive	inactive	inactive	1700	Activity (J774): > 250 µM; EC50 (Leishmania major [5]): 2300 nM; Ki [10]: 18200 nM; EC50 (Leishmania major [11]): 37400 nM
CC(C)C[C@H](NC(=O)OC(C)(C)C)C(=O)N1CCC[C@@H]1C(=O)N1C(C(=O)O)C1C(=O)OCC1CCCCC1 (mixture of isomers)	7300	450	inactive	1790	> 50%	> 50%	> 50%	120	K [12]: 8230 M⁻¹ s⁻¹; Ki (Cruzipain): 710 nM; inhibition (Leishmania mexicana [13]): > 50%; K (Procathepsin L [14]): 232 M⁻¹ s⁻¹; K [15]: 5380 M⁻¹ s⁻¹; K (Leishmania mexicana [16]): 893 M⁻¹ s⁻¹; K [17]: 1280 M⁻¹ s⁻¹; inhibition [18]: > 50%
